pIC50: −log10 of the molar value.
System: 855422-203-R-J1-PDC complex spheroid viability
Experiment: Anticancer human tumor 855422-203-R-J1-PDC patient-derived bladder carcinoma cell line growth inhibition [POLQ]
Settings: for pIC50: curve of first compound; for viability, T/C: stronger effect = lower value
How it was run: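 Growth inhibition in 3D: complex spheroids (tumor PDC, HUVEC, MSC) treated with POLQ inhibitor combinations; where Cmax unknown, highest tested concentration 10 microM, except SN-38 at 1 microM.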

[1] = second compound 0.0316 µM, first compound 0.00316 µM
[2] = second compound 0.0316 µM, first compound 0.01 µM
[3] = second compound 0.0316 µM, first compound 0.0316 µM
[4] = second compound 0.0316 µM, first compound 0.1 µM
[5] = second compound 0.0316 µM, first compound 0.316 µM
[6] = second compound 0.0316 µM, first compound 1 µM
[7] = second compound 0.1 µM, first compound 0.00316 µM
[8] = second compound 0.1 µM, first compound 0.01 µM
[9] = second compound 0.1 µM, first compound 0.0316 µM
[10] = second compound 0.1 µM, first compound 0.1 µM
[11] = second compound 0.1 µM, first compound 0.316 µM
[12] = second compound 0.1 µM, first compound 1 µM
[13] = second compound 0.316 µM, first compound 0.00316 µM
[14] = second compound 0.316 µM, first compound 0.01 µM
[15] = second compound 0.316 µM, first compound 0.0316 µM
[16] = second compound 0.316 µM, first compound 0.1 µM
[17] = second compound 0.316 µM, first compound 0.316 µM
[18] = second compound 0.316 µM, first compound 1 µM
[19] = second compound 1 µM, first compound 0.00316 µM
[20] = second compound 1 µM, first compound 0.01 µM
[21] = second compound 1 µM, first compound 0.0316 µM
[22] = second compound 1 µM, first compound 0.1 µM
[23] = second compound 1 µM, first compound 0.316 µM
[24] = second compound 1 µM, first compound 1 µM
[25] = second compound 3.16 µM, first compound 0.00316 µM
[26] = second compound 3.16 µM, first compound 0.01 µM
[27] = second compound 3.16 µM, first compound 0.0316 µM
[28] = second compound 3.16 µM, first compound 0.1 µM
[29] = second compound 3.16 µM, first compound 0.316 µM
[30] = second compound 3.16 µM, first compound 1 µM
[31] = second compound 10 µM, first compound 0.00316 µM
[32] = second compound 10 µM, first compound 0.01 µM
[33] = second compound 10 µM, first compound 0.0316 µM
[34] = second compound 10 µM, first compound 0.1 µM
[35] = second compound 10 µM, first compound 0.316 µM
[36] = second compound 10 µM, first compound 1 µM
[37] = second compound 0.0316 µM, first compound 3.16 µM
[38] = second compound 0.0316 µM, first compound 10 µM
[39] = second compound 0.1 µM, first compound 3.16 µM
[40] = second compound 0.1 µM, first compound 10 µM
[41] = second compound 0.316 µM, first compound 3.16 µM
[42] = second compound 0.316 µM, first compound 10 µM
[43] = second compound 1 µM, first compound 3.16 µM
[44] = second compound 1 µM, first compound 10 µM
[45] = second compound 3.16 µM, first compound 3.16 µM
[46] = second compound 3.16 µM, first compound 10 µM
[47] = second compound 10 µM, first compound 3.16 µM
[48] = second compound 10 µM, first compound 10 µM
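Also: spheroids exposed to compounds for seven days before readout.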

Compound: C=CCn1c(=O)c2cnc(Nc3ccc(N4CCN(C)CC4)cc3)nc2n1-c1cccc(C(C)(C)O)n1 + Cc1cccc(N(C)C(=O)C2C(O)CCN2c2nc(C)cc(C(F)(F)F)c2C#N)c1
- pIC50 (second compound 0.0316 µM): < 6.00
- pIC50 (second compound 0.1 µM): < 6.00
- pIC50 (second compound 0.316 µM): < 6.00
- pIC50 (second compound 1 µM): < 6.00
- pIC50 (second compound 3.16 µM): < 6.00
- pIC50 (second compound 10 µM): < 6.00
- viability, T/C [1]: 109%
- viability, T/C [2]: 124%
- viability, T/C [3]: 98%
- viability, T/C [4]: 100%
- viability, T/C [5]: 113%
- viability, T/C [6]: 148%
- viability, T/C [7]: 110%
- viability, T/C [8]: 122%
- viability, T/C [9]: 93%
- viability, T/C [10]: 99%
- viability, T/C [11]: 124%
- viability, T/C [12]: 175%
- viability, T/C [13]: 102%
- viability, T/C [14]: 101%
- viability, T/C [15]: 95.7%
- viability, T/C [16]: 101%
- viability, T/C [17]: 126%
- viability, T/C [18]: 173%
- viability, T/C [19]: 87.7%
- viability, T/C [20]: 112%
- viability, T/C [21]: 91.1%
- viability, T/C [22]: 118%
- viability, T/C [23]: 124%
- viability, T/C [24]: 165%
- viability, T/C [25]: 91.4%
- viability, T/C [26]: 107%
- viability, T/C [27]: 100%
- viability, T/C [28]: 105%
- viability, T/C [29]: 115%
- viability, T/C [30]: 186%
- viability, T/C [31]: 119%
- viability, T/C [32]: 105%
- viability, T/C [33]: 115%
- viability, T/C [34]: 137%
- viability, T/C [35]: 208%
- viability, T/C [36]: 123%

Compound: CCCS(=O)(=O)Nc1ccc(F)c(C(=O)c2c[nH]c3ncc(-c4ccc(Cl)cc4)cc23)c1F + Cc1cccc(N(C)C(=O)C2C(O)CCN2c2nc(C)cc(C(F)(F)F)c2C#N)c1
- pIC50 (second compound 0.0316 µM): 5.21
- pIC50 (second compound 0.1 µM): 5.21
- pIC50 (second compound 0.316 µM): 5.19
- pIC50 (second compound 1 µM): 5.22
- pIC50 (second compound 3.16 µM): 5.19
- pIC50 (second compound 10 µM): 5.17
- viability, T/C [3]: 104%
- viability, T/C [4]: 131%
- viability, T/C [5]: 99.9%
- viability, T/C [6]: 104%
- viability, T/C [37]: 109%
- viability, T/C [38]: 6.85%
- viability, T/C [9]: 98%
- viability, T/C [10]: 119%
- viability, T/C [11]: 99%
- viability, T/C [12]: 103%
- viability, T/C [39]: 121%
- viability, T/C [40]: 8.21%
- viability, T/C [15]: 103%
- viability, T/C [16]: 125%
- viability, T/C [17]: 101%
- viability, T/C [18]: 110%
- viability, T/C [41]: 115%
- viability, T/C [42]: 14.1%
- viability, T/C [21]: 97%
- viability, T/C [22]: 111%
- viability, T/C [23]: 96%
- viability, T/C [24]: 107%
- viability, T/C [43]: 123%
- viability, T/C [44]: 5.7%
- viability, T/C [27]: 97.8%
- viability, T/C [28]: 133%
- viability, T/C [29]: 139%
- viability, T/C [30]: 127%
- viability, T/C [45]: 128%
- viability, T/C [46]: 4.79%
- viability, T/C [33]: 109%
- viability, T/C [34]: 134%
- viability, T/C [35]: 139%
- viability, T/C [36]: 180%
- viability, T/C [47]: 142%
- viability, T/C [48]: 2.01%

Compound: CNCc1ccc(-c2[nH]c3cc(F)cc4c3c2CCNC4=O)cc1 + Cc1cccc(N(C)C(=O)C2C(O)CCN2c2nc(C)cc(C(F)(F)F)c2C#N)c1
- pIC50 (second compound 0.0316 µM): < 5.00
- pIC50 (second compound 0.1 µM): < 5.00
- pIC50 (second compound 0.316 µM): < 5.00
- pIC50 (second compound 1 µM): < 5.00
- pIC50 (second compound 3.16 µM): < 5.00
- pIC50 (second compound 10 µM): < 5.00
- viability, T/C [3]: 115%
- viability, T/C [4]: 101%
- viability, T/C [5]: 99.2%
- viability, T/C [6]: 104%
- viability, T/C [37]: 114%
- viability, T/C [38]: 108%
- viability, T/C [9]: 101%
- viability, T/C [10]: 101%
- viability, T/C [11]: 90.5%
- viability, T/C [12]: 107%
- viability, T/C [39]: 111%
- viability, T/C [40]: 106%
- viability, T/C [15]: 107%
- viability, T/C [16]: 115%
- viability, T/C [17]: 112%
- viability, T/C [18]: 103%
- viability, T/C [41]: 113%
- viability, T/C [42]: 120%
- viability, T/C [21]: 101%
- viability, T/C [22]: 105%
- viability, T/C [23]: 101%
- viability, T/C [24]: 103%
- viability, T/C [43]: 114%
- viability, T/C [44]: 105%
- viability, T/C [27]: 112%
- viability, T/C [28]: 108%
- viability, T/C [29]: 118%
- viability, T/C [30]: 98.8%
- viability, T/C [45]: 108%
- viability, T/C [46]: 111%
- viability, T/C [33]: 110%
- viability, T/C [34]: 95.6%
- viability, T/C [35]: 100%
- viability, T/C [36]: 104%
- viability, T/C [47]: 116%
- viability, T/C [48]: 107%

Compound: COc1cccc(OCCCN)c1-c1cc(Nc2cnc(C#N)cn2)n[nH]1 + Cc1cccc(N(C)C(=O)C2C(O)CCN2c2nc(C)cc(C(F)(F)F)c2C#N)c1
- pIC50 (second compound 0.0316 µM): 7.58
- pIC50 (second compound 0.1 µM): 7.62
- pIC50 (second compound 0.316 µM): 7.59
- pIC50 (second compound 1 µM): 7.61
- pIC50 (second compound 3.16 µM): 7.63
- pIC50 (second compound 10 µM): 7.66
- viability, T/C [1]: 122%
- viability, T/C [2]: 162%
- viability, T/C [3]: 32.3%
- viability, T/C [4]: 11.9%
- viability, T/C [5]: 8.13%
- viability, T/C [6]: 5.03%
- viability, T/C [7]: 98.7%
- viability, T/C [8]: 149%
- viability, T/C [9]: 26.4%
- viability, T/C [10]: 8.17%
- viability, T/C [11]: 7.52%
- viability, T/C [12]: 6.18%
- viability, T/C [13]: 99.1%
- viability, T/C [14]: 144%
- viability, T/C [15]: 34.1%
- viability, T/C [16]: 13.6%
- viability, T/C [17]: 7.31%
- viability, T/C [18]: 6.21%
- viability, T/C [19]: 97.4%
- viability, T/C [20]: 133%
- viability, T/C [21]: 32.1%
- viability, T/C [22]: 9.07%
- viability, T/C [23]: 8.72%
- viability, T/C [24]: 8.98%
- viability, T/C [25]: 87.8%
- viability, T/C [26]: 183%
- viability, T/C [27]: 21.4%
- viability, T/C [28]: 14.6%
- viability, T/C [29]: 7.43%
- viability, T/C [30]: 5.57%
- viability, T/C [31]: 137%
- viability, T/C [32]: 94.1%
- viability, T/C [33]: 28.3%
- viability, T/C [34]: 11.2%
- viability, T/C [35]: 9.5%
- viability, T/C [36]: 7.47%

Reference: PubChem BioAssay AID1963838 (Molecular Pharmacology Branch, DTP, NCI, 2024)
